Values quoted from earlier work as cited in publication PMC6500982 (Cancer Science, 2019).

Conditions: B‐cell NHL, European phase I study; cited from earlier work

CC#CC(=O)N1CC[C@@H](n2c(=O)n(-c3ccc(Oc4ccccc4)cc3)c3c(N)ncnc32)C1 [tirabrutinib]
Tolerability observed up to (dose): up to 480 mg once daily (QD)
